pIC50: −log10 of the molar value. Like-named read-outs stand apart in the source and are kept apart here.
Legend:
[1] = biological target: T1, human orexin-1 receptor (hOX1R) (Homo sapiens, UniProt O43613); assay: Orexin antagonistic activity assay (intracellular Ca2+, FDSS) in CHO cells expressing hOX1R; assay type: cell-based
T1 construct: expressed in transfected cells; host or cells: Chinese hamster ovary (CHO) cells
T1 sequence (O43613 1-425): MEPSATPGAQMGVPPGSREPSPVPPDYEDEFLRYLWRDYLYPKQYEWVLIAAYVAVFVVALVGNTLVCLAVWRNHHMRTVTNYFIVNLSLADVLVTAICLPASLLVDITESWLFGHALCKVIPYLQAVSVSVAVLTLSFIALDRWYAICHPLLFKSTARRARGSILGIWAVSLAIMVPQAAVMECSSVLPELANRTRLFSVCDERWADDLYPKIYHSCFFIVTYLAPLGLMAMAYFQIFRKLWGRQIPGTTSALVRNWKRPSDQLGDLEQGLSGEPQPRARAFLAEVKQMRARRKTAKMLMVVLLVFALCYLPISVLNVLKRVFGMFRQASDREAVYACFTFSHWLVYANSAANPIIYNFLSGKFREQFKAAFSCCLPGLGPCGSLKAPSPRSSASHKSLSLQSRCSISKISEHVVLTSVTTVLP
Protocol: (§1) The antagonistic activity of each test compound against human orexin-1 receptor (hOX1R) and orexin-2 receptor (hOX2R) was assayed by a modification of a method described in the literature (Toshikatsu Okumura et al., Biochemical and Biophysical Research Communications 280, 976-981, 2001). Chinese hamster ovary (CHO) cells forced to express hOX1R or hOX2R were inoculated at a density of 20,000 cells/well to a 96-well Black clear bottom plate (Nunc) and cultured at 37° C. for 16 hours under 5% CO2 conditions in a Ham's F-12 medium containing 0.1 mM MEM nonessential amino acids, 0.5 mg/ml G418, and 10% fetal bovine serum (all from Invitrogen Corp.). After removal of the medium, 100 μL of a buffer solution for assay (25 mM HEPES (Dojindo Laboratories), Hanks' balanced salt solution (Invitrogen Corp.), 0.1% bovine serum albumin, 2.5 mM probenecid, and 200 μg/ml Amaranth (all from Sigma-Aldrich Corp.), pH 7.4) containing 0.5 μM Fluo-3 AM ester (Dojindo Laboratories) was added to the cells, which were then incubated at 37° C. for 60 minutes under 5% CO2 conditions. After removal of the buffer solution for assay containing Fluo-3 AM ester, each test compound was dissolved at a concentration of 10 mM in dimethyl sulfoxide and diluted with a buffer solution for assay. Then, 150 μL of the solution was added to the cells, which were then incubated for 30 minutes.
(§2) A ligand peptide (Pyr-[…]NH2; Peptide Institute, Inc.) derived from human orexin-A by the substitution of two amino acids was diluted with a buffer solution for assay to final concentrations of 300 pM for hOX1R and 3 nM for hOX2R. Reaction was initiated by the addition of 50 μL of this ligand solution. The fluorescence intensity of the reaction was measured in each well every second for 3 minutes using Functional Drug Screening System (FDSS; manufactured by Hamamatsu Photonics K.K.), and the maximum fluorescence intensity was used as an index for intracellular Ca^2+ concentration to determine antagonistic activity. The antagonistic activity of the test compound was calculated with fluorescence intensity from a well supplemented with only a diluting buffer solution as 100% and fluorescence intensity from a well supplemented with a buffer solution free from the ligand and the compound as 0%. The 50% inhibitory concentration (IC50 value) was determined on the basis of fluorescence intensity derived from the test compound added at varying concentrations.

[2] = biological target: T2, orexin-2 receptor (hOX2R) (Homo sapiens, UniProt O43614); assay: Orexin antagonistic activity assay (intracellular Ca2+, FDSS) in CHO cells expressing hOX2R; assay type: cell-based
T2 construct: expressed in transfected cells; host or cells: Chinese hamster ovary (CHO) cells
T2 sequence (O43614 1-444): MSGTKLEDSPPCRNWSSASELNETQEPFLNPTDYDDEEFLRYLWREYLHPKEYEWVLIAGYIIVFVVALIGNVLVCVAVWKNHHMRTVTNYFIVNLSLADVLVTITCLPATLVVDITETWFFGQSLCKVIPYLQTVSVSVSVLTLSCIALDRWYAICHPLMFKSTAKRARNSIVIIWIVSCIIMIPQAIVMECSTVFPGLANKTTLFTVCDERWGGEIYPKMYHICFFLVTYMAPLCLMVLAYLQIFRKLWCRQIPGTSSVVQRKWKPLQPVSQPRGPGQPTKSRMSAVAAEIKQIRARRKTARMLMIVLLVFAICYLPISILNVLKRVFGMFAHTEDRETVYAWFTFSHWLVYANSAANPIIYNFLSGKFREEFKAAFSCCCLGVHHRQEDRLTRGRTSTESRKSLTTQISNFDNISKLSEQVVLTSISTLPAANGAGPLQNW
Protocol: as §1, §2

[3] = CHO cells expressing hOX1R, ligand peptide 300 pM, Fluo-3 maximum fluorescence intensity, read-out: IC50 value OX1
[4] = CHO cells expressing hOX2R, ligand peptide 3 nM, Fluo-3 maximum fluorescence intensity, read-out: IC50 value OX2

Row | pIC50 [1, 3] | pIC50 [2, 4] | Compound | pIC50 [1] | pIC50 [2]
1 | 8.00 | 7.15 | Cc1ccc(-n2nccn2)c(C(=O)N2C[C@H](c3nc4ccc(Cl)cc4o3)CC[C@H]2C)n1 [Example 46, [(2R,5R)-5-(6-Chloro-1,3-benzoxazol-2-yl)-2-methylpiperidin-1-yl][6-methyl-3-(2H-1,2,3-triazol-2-yl)pyridin-2-yl]methanone] | – | –
2 | 6.99 | 7.03 | C[C@@H]1CC[C@@H](c2nc3ccc(F)cc3o2)CN1C(=O)c1cc(Cl)ccc1-c1ncccn1 [Example 49, [5-Chloro-2-(pyrimidin-2-yl)phenyl][(2R,5R)-5-(6-fluoro-1,3-benzoxazol-2-yl)-2-methylpiperidin-1-yl]methanone] | – | –
3 | 6.97 | 7.25 | C[C@@H]1CC[C@@H](c2nc3cc(Cl)ccc3o2)CN1C(=O)c1cc(C(F)(F)F)ccc1-n1nccn1 [Example 20, [(2R,5R)-5-(5-Chloro-1,3-benzoxazol-2-yl)-2-methylpiperidin-1-yl][2-(2H-1,2,3-triazol-2-yl)-5-(trifluoromethyl)phenyl]methanone] | – | –
4 | 8.36 | 8.26 | Cc1ccc(-c2ncccn2)c(C(=O)N2C[C@H](c3nc4c(Cl)cccc4o3)CC[C@H]2C)c1 [Example 69, [(2R,5R)-5-(4-Chloro-1,3-benzoxazol-2-yl)-2-methylpiperidin-1-yl][5-methyl-2-(pyrimidin-2-yl)phenyl]methanone] | – | –
5 | 7.96 | 8.08 | Cc1ccc(C(=O)N2C[C@H](c3nc4cc(Cl)ccc4o3)CC[C@H]2C)c(-n2nccn2)c1 [Example 26, [(2R,5R)-5-(5-Chloro-1,3-benzoxazol-2-yl)-2-methylpiperidin-1-yl][4-methyl-2-(2H-1,2,3-triazol-2-yl)phenyl]methanone] | – | –
6 | 7.00 | 8.07 | COc1cnc(-c2ccc(F)cc2C(=O)N2C[C@H](c3nc4cc(Cl)ccc4o3)CC[C@H]2C)nc1 [Example 24, [(2R,5R)-5-(5-Chloro-1,3-benzoxazol-2-yl)-2-methylpiperidin-1-yl][5-fluoro-2-(5-methoxypyrimidin-2-yl)phenyl]methanone] | – | –
7 | 5.75 | 6.73 | C[C@@H]1CC[C@@H](c2nc3cc(Cl)ccc3o2)CN1C(=O)c1ccc(Cl)cc1-n1nccn1 [Example 27, [(2R,5R)-5-(5-Chloro-1,3-benzoxazol-2-yl)-2-methylpiperidin-1-yl][4-chloro-2-(2H-1,2,3-triazol-2-yl)phenyl]methanone] | – | –
8 | 6.25 | 7.70 | Cc1ccc(-c2ncccn2)c(C(=O)N2C[C@H](c3nc4cc(C#N)ccc4o3)CC[C@H]2C)c1 [Example 57, 2-{(3R,6R)-6-Methyl-1-[5-methyl-2-(pyrimidin-2-yl)benzoyl]piperidin-3-yl}-1,3-benzoxazole-5-carbonitrile] | – | –
9 | 6.85 | 8.01 | C[C@@H]1CC[C@@H](c2nc3cc(Cl)ccc3o2)CN1C(=O)c1cccc(F)c1-n1nccn1 [Example 15, [(2R,5R)-5-(5-Chloro-1,3-benzoxazol-2-yl)-2-methylpiperidin-1-yl][3-fluoro-2-(2H-1,2,3-triazol-2-yl)phenyl]methanone] | – | –
10 | 7.87 | 8.14 | Cc1ccc(-c2ncccn2)c(C(=O)N2C[C@H](c3nc4cc(F)c(F)cc4o3)CC[C@H]2C)c1 [Example 51, [(2R,5R)-5-(5,6-Difluoro-1,3-benzoxazol-2-yl)-2-methylpiperidin-1-yl][5-methyl-2-(pyrimidin-2-yl)phenyl]methanone] | – | –
11 | 8.03 | 8.03 | Cc1ccc(-n2nccn2)c(C(=O)N2C[C@H](c3nc4ccc(F)c(F)c4o3)CC[C@H]2C)c1 [Example 58, [(2R,5R)-5-(6,7-Difluoro-1,3-benzoxazol-2-yl)-2-methylpiperidin-1-yl][5-methyl-2-(2H-1,2,3-triazol-2-yl)phenyl]methanone] | – | –
12 | 7.56 | 7.59 | Cc1ccc(-c2ncccn2)c(C(=O)N2C[C@H](c3nc4c(F)cccc4o3)CC[C@H]2C)c1 [Example 67, [(2R,5R)-5-(4-Fluoro-1,3-benzoxazol-2-yl)-2-methylpiperidin-1-yl][5-methyl-2-(pyrimidin-2-yl)phenyl]methanone] | – | –
13 | 7.50 | 8.11 | C[C@@H]1CC[C@@H](c2nc3cc(Cl)ccc3o2)CN1C(=O)c1cc(Br)ccc1-n1nccn1 [Example 22, [5-Bromo-2-(2H-1,2,3-triazol-2-yl)phenyyl][(2R,5R)-5-(5-chloro-1,3-benzoxazol-2-yl)-2-methylpiperidin-1-yl]methanone] | – | –
14 | – | – | Cc1ccc(-n2nccn2)c(C(=O)N2C[C@H](c3nc4cc(Cl)ccc4o3)CC[C@H]2C)c1 (single isomer, unassigned) [Example 9, [(2R*,5R*)-5-(5-Chloro-1,3-benzoxazol-2-yl)-2-methylpiperidin-1-yl][5-methyl-2-(2H-1,2,3-triazol-2-yl)phenyl]methanone] | 8.92 | 8.74
15 | 6.79 | 8.00 | Cc1ccc(-n2nccn2)c(C(=O)N2C[C@H](c3nc4cc(C#N)ccc4o3)CC[C@H]2C)c1 [Example 56, 2-[(3R,6R)-6-Methyl-1-[5-methyl-2-(2H-1,2,3-triazol-2-yl)benzoyl]piperidin-3-yl]-1,3-benzoxazole-5-carbonitrile] | – | –
16 | 9.15 | 8.68 | Cc1ccc(-c2ncccn2)c(C(=O)N2C[C@H](c3nc4cc(F)ccc4o3)CC[C@H]2C)c1 (single isomer, unassigned) [Example 8, [(2R*,5R*)-5-(5-Fluoro-1,3-benzoxazol-2-yl)-2-methylpiperidin-1-yl][5-methyl-2-(pyrimidin-2-yl)phenyl]methanone] | – | –
17 | 8.39 | 8.01 | Cc1ccc(-n2nccn2)c(C(=O)N2C[C@H](c3nc4ccc(Cl)cc4o3)CC[C@H]2C)c1 [Example 43, [(2R,5R)-5-(6-Chloro-1,3-benzoxazol-2-yl)-2-methylpiperidin-1-yl][5-methyl-2-(2H-1,2,3-triazol-2-yl)phenyl]methanone] | – | –
18 | 8.01 | 8.07 | Cc1ccc(-n2nccn2)c(C(=O)N2C[C@H](c3nc4cc(F)c(F)cc4o3)CC[C@H]2C)c1 [Example 50, [(2R,5R)-5-(5,6-Difluoro-1,3-benzoxazol-2-yl)-2-methylpiperidin-1-yl][5-methyl-2-(2H-1,2,3-triazol-2-yl)phenyl]methanone] | – | –
19 | 8.36 | 7.89 | C[C@@H]1CC[C@@H](c2nc3cc(Cl)ccc3o2)CN1C(=O)c1cc(Cl)ccc1-c1ncccn1 [Example 13, [(2R,5R)-5-(5-Chloro-1,3-benzoxazol-2-yl)-2-methylpiperidin-1-yl][5-chloro-2-(pyrimidin-2-yl)phenyl]methanone] | – | –
20 | 7.23 | 7.91 | C[C@@H]1CC[C@@H](c2nc3ccc(Cl)cc3o2)CN1C(=O)c1c(F)cccc1-n1nccn1 [Example 48, [(2R,5R)-5-(6-Chloro-1,3-benzoxazol-2-yl)-2-methylpiperidin-1-yl][2-fluoro-6-(2H-1,2,3-triazol-2-yl)phenyl]methanone] | – | –

Source: US20140228377A1, “METHYLPIPERIDINE DERIVATIVE” (TAISHO PHARMACEUTICAL CO., LTD., priority 2011, published 2014)
